From ChEMBL document CHEMBL1255467, “Comparative in vitro antimicrobial activities of torezolid (TR-700), the active moiety of a new oxazolidinone, torezolid phosphate (TR-701), determination of tentative disk diffusion interpretive criteria, and quality control ranges” (2010)
Values after ≈ are worked out from the molar mass of the structure shown.

How the values were obtained:
[1] = tested on: Staphylococcus aureus; experiment: Antimicrobial activity against linezolid-resistant Staphylococcus aureus by broth dilution method; format: functional
[2] = tested on: Staphylococcus aureus; experiment: Antimicrobial activity against methicillin-resistant Staphylococcus aureus by broth dilution method; format: functional; details: Staphylococcus aureus
[3] = tested on: Staphylococcus aureus; experiment: Antimicrobial activity against methicillin-susceptible Staphylococcus aureus by broth dilution method; format: functional; details: Staphylococcus aureus
[4] = tested on: Staphylococcus aureus; experiment: Antimicrobial activity against Staphylococcus aureus by broth dilution method; format: functional; details: Staphylococcus aureus
[5] = tested on: Staphylococcus sp.; experiment: Antimicrobial activity against Staphylococcus sp. by broth dilution method; format: functional; details: Staphylococcus sp.
[6] = tested on: Staphylococcus sp.; experiment: Antimicrobial activity against methicillin-resistant coagulase-negative Staphylococcus by broth dilution method; format: functional
[7] = tested on: Staphylococcus aureus; experiment: Antimicrobial activity against vancomycin-nonsusceptible Staphylococcus aureus by broth dilution method; format: functional; details: Staphylococcus aureus
[8] = tested on: Staphylococcus sp.; experiment: Antimicrobial activity against methicillin-susceptible coagulase-negative Staphylococcus by broth dilution method; format: functional; details: Staphylococcus sp.
[9] = tested on: Enterococcus sp.; experiment: Antimicrobial activity against Enterococcus by broth dilution method; format: functional; details: Enterococcus sp.
[10] = tested on: Enterococcus faecalis; experiment: Antimicrobial activity against vancomycin-resistant Enterococcus faecalis by broth dilution method; format: functional
[11] = tested on: Enterococcus faecalis; experiment: Antimicrobial activity against vancomycin-susceptible Enterococcus faecalis by broth dilution method; format: functional; details: Enterococcus faecalis
[12] = tested on: Enterococcus faecium; experiment: Antimicrobial activity against vancomycin-resistant Enterococcus faecium by broth dilution method; format: functional
[13] = tested on: Enterococcus faecium; experiment: Antimicrobial activity against vancomycin-susceptible Enterococcus faecium by broth dilution method; format: functional; details: Enterococcus faecium
[14] = tested on: Streptococcus pneumoniae; experiment: Antimicrobial activity against Streptococcus pneumoniae by broth dilution method; format: functional; details: Streptococcus pneumoniae
[15] = tested on: Streptococcus pneumoniae; experiment: Antimicrobial activity against penicillin-susceptible Streptococcus pneumoniae by broth dilution method; format: functional; details: Streptococcus pneumoniae
[16] = tested on: Streptococcus pneumoniae; experiment: Antimicrobial activity against penicillin-intermediate Streptococcus pneumoniae by broth dilution method; format: functional; details: Streptococcus pneumoniae
[17] = tested on: Streptococcus pneumoniae; experiment: Antimicrobial activity against penicillin-resistant Streptococcus pneumoniae by broth dilution method; format: functional
[18] = tested on: Streptococcus viridans; experiment: Antimicrobial activity against Streptococcus viridans by broth dilution method; format: functional
[19] = tested on: Corynebacterium jeikeium; experiment: Antimicrobial activity against Corynebacterium jeikeium by broth dilution method; format: functional
[20] = tested on: Listeria monocytogenes; experiment: Antimicrobial activity against Listeria monocytogenes by broth dilution method; format: functional
[21] = tested on: Moraxella catarrhalis; experiment: Antimicrobial activity against Moraxella catarrhalis by broth dilution method; format: functional
[22] = tested on: Haemophilus influenzae; experiment: Antimicrobial activity against Haemophilus influenzae by broth dilution method; format: functional; details: Haemophilus influenzae
[23] = tested on: Haemophilus influenzae; experiment: Antimicrobial activity against beta-lactamase negative Haemophilus influenzae by broth dilution method; format: functional; details: Haemophilus influenzae
[24] = tested on: Haemophilus influenzae; experiment: Antimicrobial activity against beta-lactamase positive Haemophilus influenzae by broth dilution method; format: functional; details: Haemophilus influenzae; for MIC90: read-out: MIC90
[25] = tested on: Haemophilus influenzae; experiment: Antimicrobial activity against ampicillin-nonsusceptible beta-lactamase negative Haemophilus influenzae by broth dilution method; format: functional; details: Haemophilus influenzae
[26] = tested on: Streptococcus sp; experiment: Antimicrobial activity against streptococcal sp. by broth dilution method; details: Streptococcus sp.

Compound `C[C@H]1COc2c(N3CCN(C)CC3)c(F)cc3c(=O)c(C(=O)O)cn1c23.C[C@H]1COc2c(N3CCN(C)CC3)c(F)cc3c(=O)c(C(=O)O)cn1c23.O` [LEVOFLOXACIN] has an MIC50 [1] of over 16 µg/mL, an MIC50 [2] of 8 µg/mL and an MIC50 [3] of 0.25 µg/mL. For the same compound, the MIC90 [3] was 4 µg/mL, the MIC50 [4] was 4 µg/mL and the MIC90 [4] was over 16 µg/mL. It also gave an MIC50 [5] of 0.5 µg/mL, an MIC90 [5] of over 16 µg/mL and an MIC50 [6] of 8 µg/mL. For the same compound, the MIC50 [7] was 16 µg/mL, the MIC90 [7] was over 16 µg/mL and the MIC50 [8] was 0.25 µg/mL. For the same compound, the MIC90 [8] was 0.5 µg/mL, the MIC50 [9] was over 16 µg/mL and the MIC90 [9] was over 16 µg/mL. It also gave an MIC50 [10] of over 16 µg/mL, an MIC50 [11] of 1 µg/mL and an MIC90 [11] of over 16 µg/mL. The MIC50 [12] was over 16 µg/mL, the MIC50 [13] was 4 µg/mL and the MIC90 [13] was over 16 µg/mL. For the same compound, the MIC50 [14] was 1 µg/mL, the MIC90 [14] was 1 µg/mL and the MIC50 [15] was 1 µg/mL. It also gave an MIC90 [15] of 1 µg/mL, an MIC50 [16] of 1 µg/mL and an MIC90 [16] of 1 µg/mL. The MIC50 [17] was 1 µg/mL, the MIC90 [17] was 1 µg/mL and the MIC50 [18] was 1 µg/mL. It also gave an MIC90 [18] of 2 µg/mL, an MIC [19] of over 16 µg/mL and an MIC50 [19] of over 16 µg/mL. It also gave an MIC90 [19] of over 16 µg/mL, an MIC [20] of 1 µg/mL and an MIC50 [20] of 1 µg/mL. The MIC90 [20] was 1 µg/mL, the MIC50 [21] was 0.06 µg/mL and the MIC90 [21] was 0.06 µg/mL. For the same compound, the MIC [22] was 0.12 µg/mL, the MIC50 [22] was 0.12 µg/mL and the MIC90 [22] was 0.12 µg/mL. It also gave an MIC [23] of 0.12 µg/mL, an MIC50 [23] of 0.12 µg/mL and an MIC90 [23] of 0.12 µg/mL. For the same compound, the MIC [24] was 0.12 µg/mL, the MIC50 [24] was 0.12 µg/mL and the MIC90 [24] was 0.12 µg/mL. It also gave an MIC [25] of 0.12 µg/mL, an MIC50 [25] of 0.12 µg/mL and an MIC90 [25] of 0.12 µg/mL. For the same compound, the MIC50 [26] was 1 µg/mL and the MIC90 [26] was 1 µg/mL.
With `CO/N=C(\C(=O)N[C@@H]1C(=O)N2C(C(=O)O)=C(COC(C)=O)CS[C@H]12)c1csc(N)n1` [CEFOTAXIME] the MIC50 [2] was 16 µg/mL (≈ 35.1 µM), the MIC50 [3] was 2 µg/mL (≈ 4.39 µM) and the MIC90 [3] was 2 µg/mL (≈ 4.39 µM). The MIC50 [4] was over 8 µg/mL, the MIC90 [4] was over 64 µg/mL and the MIC50 [5] was 4 µg/mL (≈ 8.78 µM). The MIC90 [5] was over 64 µg/mL, the MIC50 [6] was 8 µg/mL (≈ 17.6 µM) and the MIC50 [7] was over 64 µg/mL. For the same compound, the MIC90 [7] was over 64 µg/mL, the MIC50 [8] was 0.5 µg/mL (≈ 1.1 µM) and the MIC90 [8] was 2 µg/mL (≈ 4.39 µM). For the same compound, the MIC50 [9] was over 64 µg/mL, the MIC90 [9] was over 64 µg/mL and the MIC50 [11] was over 64 µg/mL. For the same compound, the MIC90 [11] was over 64 µg/mL, the MIC [12] was over 64 µg/mL and the MIC50 [13] was over 64 µg/mL. The MIC90 [13] was over 64 µg/mL, the MIC50 [14] was 0.12 µg/mL (≈ 0.263 µM) and the MIC90 [14] was 2 µg/mL (≈ 4.39 µM). For the same compound, the MIC [15] was 0.015 µg/mL (≈ 0.0329 µM), the MIC50 [15] was 0.015 µg/mL (≈ 0.0329 µM) and the MIC90 [15] was 0.03 µg/mL (≈ 0.0659 µM). The MIC50 [16] was 0.12 µg/mL (≈ 0.263 µM), the MIC90 [16] was 0.5 µg/mL (≈ 1.1 µM) and the MIC50 [17] was 1 µg/mL (≈ 2.2 µM). For the same compound, the MIC90 [17] was 8 µg/mL (≈ 17.6 µM), the MIC50 [18] was 0.12 µg/mL (≈ 0.263 µM) and the MIC90 [18] was 0.5 µg/mL (≈ 1.1 µM). The MIC50 [19] was 32 µg/mL (≈ 70.3 µM), the MIC90 [19] was 32 µg/mL (≈ 70.3 µM) and the MIC50 [20] was 32 µg/mL (≈ 70.3 µM). The MIC90 [20] was 32 µg/mL (≈ 70.3 µM), the MIC50 [21] was 0.25 µg/mL (≈ 0.549 µM) and the MIC90 [21] was 1 µg/mL (≈ 2.2 µM). It also gave an MIC50 [22] of 0.015 µg/mL (≈ 0.0329 µM), an MIC90 [22] of 0.5 µg/mL (≈ 1.1 µM) and an MIC [23] of 0.008 µg/mL (≈ 0.0176 µM). It also gave an MIC50 [23] of 0.008 µg/mL (≈ 0.0176 µM), an MIC90 [23] of 0.015 µg/mL (≈ 0.0329 µM) and an MIC50 [24] of 0.015 µg/mL (≈ 0.0329 µM). It also gave an MIC90 [24] of 0.015 µg/mL (≈ 0.0329 µM), an MIC50 [25] of 0.5 µg/mL (≈ 1.1 µM) and an MIC90 [25] of 0.5 µg/mL (≈ 1.1 µM). For the same compound, the MIC50 [26] was 0.03 µg/mL (≈ 0.0659 µM) and the MIC90 [26] was 1 µg/mL (≈ 2.2 µM).
